Article PMC9536471 (Biochemistry, 2022)
Several values for one entry are separate records, joined by “and”; a condition that tells them apart may be missing. Identical values can stand only once. Like-named read-outs stand apart in the source and are kept apart here.

Legend:
[1] = molecular target: T1, PfHGXPRT (Plasmodium falciparum, UniProt P20035); assay: Inhibition analysis of PfHGXPRT, IMPDH-coupled assay; assay type: biochemical
T1 sequence (P20035 1-231): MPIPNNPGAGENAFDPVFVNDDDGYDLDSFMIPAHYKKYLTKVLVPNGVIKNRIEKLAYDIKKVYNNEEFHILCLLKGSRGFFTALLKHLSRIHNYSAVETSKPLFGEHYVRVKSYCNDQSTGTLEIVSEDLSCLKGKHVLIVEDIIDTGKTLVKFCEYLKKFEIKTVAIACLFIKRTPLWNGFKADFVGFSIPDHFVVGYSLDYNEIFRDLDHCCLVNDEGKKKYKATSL

[2] = tested on: T. cruzi HGPRT; assay: Screening of T. cruzi HGPRT inhibitors; assay type: biochemical, Trypanosoma cruzi; details: selectivity index: Ki of HsHGPRT divided by appKi of T. cruzi HGPRT
[3] = molecular target: T2, T. cruzi HGPRT (Trypanosoma cruzi, UniProt Q4DGA3); assay: Screening of T. cruzi HGPRT inhibitors; assay type: biochemical
T2 sequence (Q4DGA3 1-221): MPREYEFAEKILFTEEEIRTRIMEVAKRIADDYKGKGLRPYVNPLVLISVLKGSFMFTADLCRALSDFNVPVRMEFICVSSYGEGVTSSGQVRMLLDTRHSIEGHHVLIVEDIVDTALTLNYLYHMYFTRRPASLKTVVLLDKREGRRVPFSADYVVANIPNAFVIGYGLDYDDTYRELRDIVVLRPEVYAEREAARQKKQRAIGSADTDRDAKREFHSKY

[4] = molecular target: T3, HsHGPRT (Homo sapiens, UniProt P00492); assay: Inhibition analysis of HsHGPRT, IMPDH-coupled assay; assay type: biochemical
T3 sequence (P00492 1-218): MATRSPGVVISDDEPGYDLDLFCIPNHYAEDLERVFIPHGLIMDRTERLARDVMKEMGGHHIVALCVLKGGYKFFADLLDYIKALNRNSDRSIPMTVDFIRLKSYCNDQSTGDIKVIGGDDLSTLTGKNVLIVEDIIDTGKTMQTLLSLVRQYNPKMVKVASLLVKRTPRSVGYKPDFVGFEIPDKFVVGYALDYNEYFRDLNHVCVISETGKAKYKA

[5] = molecular target: T4, TcA (Trypanosoma cruzi, UniProt Q4DRC4); details: cited from earlier work
T4 sequence (Q4DRC4 1-241): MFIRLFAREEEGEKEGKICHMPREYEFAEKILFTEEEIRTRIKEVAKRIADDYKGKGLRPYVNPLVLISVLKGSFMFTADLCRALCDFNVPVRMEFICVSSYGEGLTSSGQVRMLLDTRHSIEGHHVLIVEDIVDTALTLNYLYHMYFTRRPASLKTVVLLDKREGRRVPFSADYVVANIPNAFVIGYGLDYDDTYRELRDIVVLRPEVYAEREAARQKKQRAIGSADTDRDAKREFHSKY

[6] = molecular target: T5, TcC (Trypanosoma cruzi, UniProt Q4DGA3); assay: Isothermal titration calorimetry; assay type: binding
T5 sequence (Q4DGA3 1-221): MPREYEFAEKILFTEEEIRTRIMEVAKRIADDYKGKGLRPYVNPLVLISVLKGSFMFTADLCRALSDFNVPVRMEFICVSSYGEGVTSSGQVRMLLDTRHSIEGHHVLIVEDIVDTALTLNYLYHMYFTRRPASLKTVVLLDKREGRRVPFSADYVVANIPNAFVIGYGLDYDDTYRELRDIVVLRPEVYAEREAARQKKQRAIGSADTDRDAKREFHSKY

[7] = molecular target: T5, TcC; assay: Product inhibition studies of TcC; assay type: biochemical
[8] = substrate: Nc1nc2nc[nH]c2c(=O)[nH]1; assay: Steady-state kinetics of TcA, biosynthetic; assay type: biochemical, Trypanosoma cruzi; details: other: biosynthetic reaction, pH 8.3
[9] = substrate: O=c1[nH]cnc2nc[nH]c12; assay: purified protein, by the assay type; details: other: biosynthetic reaction, pH 8.3
[10] = substrate: Oc1ncnc2[nH]ncc12; assay: Steady-state kinetics of TcC, biosynthetic; assay type: biochemical, Trypanosoma cruzi; details: other: biosynthetic reaction, pH 8.3
[11] = substrate: Nc1nc2nc[nH]c2c(=O)[nH]1; assay: Steady-state kinetics of TcC, biosynthetic; assay type: biochemical, Trypanosoma cruzi; details: other: biosynthetic reaction, pH 8.3
[12] = HPP-MP biosynthesis, fixed PRPP (1 mM), Lineweaver–Burk plots
[13] = GMP biosynthesis, variable PRPP (20–215 μM), fixed Gua (70 μM)
[14] = IMP biosynthesis, variable PRPP (20–215 μM), fixed Hx (60 μM)

Molecule CN(Cc1c[nH]c2c(=O)[nH]cnc12)[C@H](CO)CCP(=O)(O)O.N.N [Compound 4] has a Ki [1] of 108 ± 30 nM, an SI [2] of 3.2 and a Ki [3] of 1440 ± 30 nM. For the same molecule, the Ki [4] was 4.6 ± 0.07 µM.

In the case of Oc1ncnc2[nH]ncc12 [HPP, 4-hydroxypyrazolo(3,4-d)pyrimidine, reference compound], the Km [5, 12] is given as 710 ± 130 µM and the kcat [5, 12] is given as 0.34 ± 0.03 ^c^, ^d s^–1.

For O=c1[nH]cnc2nc[nH]c12 [Hx, hypoxanthine], the “binding to free TcC enzyme” value ([6]; ligand concentrations 500- and 900-fold higher than Km) was “could not be detected”.

In the case of O=P(O)(O)OC[C@H]1O[C@H](OP(=O)(O)OP(=O)(O)O)[C@H](O)[C@@H]1O [PRPP, 5-phospho-α-D-ribose 1-diphosphate], the Ki [7] is reported as 800 ± 100 nM, the Kd [6] is reported as 142 ± 1 µM and the “ΔG°” value ([6]; apo TcC, 25 °C, pH 8.0) is reported as “–5247 ± 5 cal mol^–1”. For the same molecule, the “ΔH°” value ([6]; apo TcC, 25 °C, pH 8.0) was 5160 ± 450 cal mol^–1, the “–TΔS°” value ([6]; apo TcC, 25 °C, pH 8.0) was “–10,410 ± 450 cal mol^–1” and the Ka ([6]; association constant, apo TcC, 25 °C, pH 8.0) was 7070 ± 60 M^–1. For the same molecule, the N ([6]; number of binding sites per monomer, apo TcC, 25 °C, pH 8.0) was 1.2 ± 0.2, the Km [5, 13] was 32 ± 5 µM and the kcat [5, 13] was 32 ^b s^–1. The Km [5, 14] was 31 ± 5 µM and the kcat [5, 14] was 23 ^b s^–1.

B1: TcA (Trypanosoma cruzi strain CL Brener) (protein)
chain: MFIRLFAREEEGEKEGKICHMPREYEFAEKILFTEEEIRTRIKEVAKRIADDYKGKGLRPYVNPLVLISVLKGSFMFTADLCRALCDFNVPVRMEFICVSSYGEGLTSSGQVRMLLDTRHSIEGHHVLIVEDIVDTALTLNYLYHMYFTRRPASLKTVVLLDKREGRRVPFSADYVVANIPNAFVIGYGLDYDDTYRELRDIVVLRPEVYAEREAARQKKQRAIGSADTDRDAKREFHSKY
For B1, the kcat/Km [8] was 1 × 10^5 M^–1 s^–1 and 2.5 × 10^6 M^–1 s^–1 and the kcat/Km ([9]; TcA) was 1 × 10^5 M^–1 s^–1.

B2: TcC (Trypanosoma cruzi strain CL Brener) (protein)
chain: MPREYEFAEKILFTEEEIRTRIMEVAKRIADDYKGKGLRPYVNPLVLISVLKGSFMFTADLCRALSDFNVPVRMEFICVSSYGEGVTSSGQVRMLLDTRHSIEGHHVLIVEDIVDTALTLNYLYHMYFTRRPASLKTVVLLDKREGRRVPFSADYVVANIPNAFVIGYGLDYDDTYRELRDIVVLRPEVYAEREAARQKKQRAIGSADTDRDAKREFHSKY
For B2, the kcat/Km [10] was 10^3 M^–1 s^–1, the kcat/Km [11] was 1 × 10^5 M^–1 s^–1 and 2.5 × 10^6 M^–1 s^–1 and the kcat/Km ([9]; TcC) was 1 × 10^5 M^–1 s^–1 and 2.1 × 10^6 M^–1 s^–1.
